Data reported in patent US8193377B2, “(−)-epigallocatechin gallate derivatives for inhibiting proteasome” (The Hong Kong Polytechnic University, priority 2004, dated 2012).

How the values were obtained:
[1] = tested on: ubiquitinated proteins, Bax, p27, IκBα in Jurkat T cells; assay: Western blot for ubiquitinated proteins and proteasome targets (Bax, p27, IκBα) in Jurkat T cells; assay type: cell-based, human; conditions: 25 μM, 24 h
Method: (§1) Whole cells extracts were prepared as described previously (An B, Goldfarb R H, Siman R, Dou Q P. Novel dipeptidyl proteasome inhibitors overcome Bc1-2 protective function and selectively accumulate the cyclin-dependent kinase inhibitor p27 and induce apoptosis in transformed, but not normal, human fibroblasts. Cell Death Differ 1998; 5: 1062-75.). Analysis of Bax, IKBa, p27, PAW, and ubiquitinated protein expression were performed using monoclonal or polyclonal antibodies according to previously reported protocols (An B et. al.).
To determine what effects the synthetic tea analogs had on the proteasome in vivo, Jurkat cells were treated with 25 μM of each synthetic compound for either 4 or 24 h, with (−)-EGCG as a control (FIGS. 9A and 9B). […] This is consistent with the idea that protected analogs are potent inhibitors of the proteasome at an earlier time point and that after 24 h of treatment the ubiquitinated proteins are being depleted by deubiquitinating enzymes. […] The putative ubiquitinated IκBα band is still found in cells treated with 2a, 3a, and 4a (FIG. 9B, Lanes 9, 5, 7). The presumed ubiquinated IκBα band is now absent in the 24 h treatment, possibly due to deubiquitination (FIG. 9B). Actin was used as a loading control in this experiment.
The pro-apoptotic protein Bax and the cyclin-dependent kinase inhibitor p27 are natural proteasome targets. If the peracetate-protected polyphenols inhibit the intact proteasome activity, we would expect accumulation of Bax and p27 in these cells. To test this idea, Jurkat T cells were treated with both protected and unprotected compounds and lysates were analyzed by Western blot using specific antibodies to Bax and p27 (FIG. 15). After 4 h of treatment, the peracetate-protected analogs 24* and 19*, but not their unprotected analogs, were able to increase accumulation of both Bax (by 3- and 2.5-fold, respectively) and p27 (6- and 11-fold, respectively) (FIG. 15A). After 24 h treatment, Bax levels were increased in cells treated with all of the peracetate-protected compounds (13-, 12-, 40- and 36-fold, respectively, by 24*, 19*, 21* and 23*).

Jurkat T cells [2] = assay: Western blot for PARP cleavage in Jurkat T cells; assay type: cell-based, human; conditions: 25 μM, 24 h
Method: as §1
(§2) It has been shown that proteasome inhibition can induce apoptosis in a wide variety of cancer cells, but not in normal, non-transformed cells (An B et al). Jurkat T cells are treated with 25 μM of each of the selected polyphenols and their protected analogs for 24 h to investigate their abilities to induce apoptotic cell death. […] The unprotected 2 induced much less apoptosis (21%), while 25 μM VP-16, used as a positive control, induced 92% apoptosis (FIGS. 10C and 10D). Counterstain with DAPI, which binds to the minor groove in A-T rich regions of DNA, was decreased drastically in apoptotic cells (FIG. 10C), consistent with DNA fragmentation in late stage apoptosis.
To determine if the cell death observed (FIG. 16) was due to the induction of apoptosis, a similar experiment was performed in Jurkat T cells, followed by measurement of caspase-3 activation and PARP cleavage.

YT cells = assay: Western blot in non-transformed natural killer YT cells compared with Jurkat T cells; assay type: cell-based, human; conditions: 25 μM, 24 h
LNCaP cells [3] = assay: Apoptotic morphological changes, phase contrast; assay type: cell-based, human; conditions: 25 μM, 24 h
[4] = tested on: ubiquitin-conjugated proteins in LNCaP cells; assay: Western blot for ubiquitin-conjugated proteins in LNCaP cells; assay type: cell-based, human; conditions: 25 μM, 24 h
Method: as §1
To determine if acetate-protected analogs are potent proteasome inhibitors in other cancer cell systems, prostate cancer LNCaP cells were treated for 24 h with 25 μM of (−)-EGCG, 1, 2a, or 3a, with DMSO as a control.

VA-13 cells [5] = assay: Immunostaining of apoptotic cells with anti-cleaved PARP-FITC; assay type: cell-based, human; conditions: 25 μM, 24 h
Method: Immunostaining of apoptotic cells was performed by addition of a FITC-conjugated polyclonal antibody that recognizes cleaved poly(ADP-ribose) polymerase (PARP) and visualized on an Axiovert 2 5 (Zeiss; Thornwood, N.Y.) microscope. Cells were grown to about 80% confluency in 60 mm dishes. VA-13 cells were then treated with VP-16, 2, or 2a (25 μM) for 24 h. Following treatment, both suspension and adhering cells were collected and washed twice in PBS pH 7.4. The cells were washed between all steps listed below and all washes are 1 min duration with PBS. Cells were then fixed in ice-cold 70% ethanol, permeabilized in 0.1% Triton-X-100 and blocked for 30 min in 1% bovine serum albumin (BSA) at room temperature. Incubation with the primary FITC-conjugated-p85/PARP antibody was for 30 min at 4° C. in the dark with mild shaking. Cell suspension was then transferred to glass slides in the presence of Vector Shield mounting medium with DAPI. Images were captured using AxioVision 4.1 and adjusted using Adobe Photoshop 6.0 software. Cell death was quantified by counting the number of apoptotic cells over the total number of cells in the same field. Data are mean of duplicate experiments ±SD.
as §2

[6] = target: T1, proteasome in VA-13 cells (Homo sapiens, UniProt P28074); assay: Chymotrypsin-like proteasome activity in intact VA-13 cells; assay type: cell-based; conditions: 25 μM, 24 h
T1 construct: endogenous in cells; host or cells: VA-13 (SV40-transformed human fibroblasts)
Method: VA-13 or WI-38 cells were grown in 24 well plates (2 ml/well) to 70-80% confluency, followed by 24 h treatment with […] (−)-EGCG, 2, or 2a. […] Suc-Leu-Leu-Val-Tyr-AMC substrate was then added for 2.5 h at 37° C. and the chyrnotrypsin-like activity was measured as described above. Alternatively, cells were treated with each compound at 25 μM for 4 or 24 h, and harvested and lysed. Suc-Leu-Leu-Val-Tyr-AMC (40 μM) was then incubated with the prepared cell lysates for 2.5 h and the chymotrypsin-like activity was measured as described above.
The ability to induce apoptosis in tumor cells, but not normal cells is an important measure for novel anti-cancer drugs. To determine whether the protected compounds also affect normal cells, both VA-13 and WI-38 cells were treated with 25 μM of (−)-EGCG, 2, or 2a for 24 h and examined proteasome activity, nuclear morphological changes, and detachment. A differential decrease was found in the chyrnotrypsin-like activity of the proteasome in VA-13 cells over normal WI-38 cells (FIG. 12A). […] Conversely, the proteasome activity in WI-38 cells was decreased by only −5% with all three polyphenol treatments.

MCF-7 cells = assay: MTT assay; assay type: cell-based, human; conditions: 24 h
Method: MTT was used to determine effects of polyphenols on overall proliferation of tumor cells. Human breast MCF-7 cells were plated in a 96 well plate and grown to 70-80% confluency, followed by addition of analogs for 24 h. MTT (1 mg/ml) in PBS was then added to wells and incubated at 37° C. for 4 hours to allow for complete cleavage of the tetrazolium salt by metabolically active cells. Next, the MTT was removed and 100 μl of DMSO was added and colorimetric analysis performed using a multilabel plate reader at 560 nm (Victor^3; Perkin Elmer). Absorbance values plotted are the mean from triplicate experiments.
Treated breast cancer (MCF-7) cells were then treated with 5 or 25 μM of peracetate-protected analogs for 24 h, followed by MTT analysis to determine their effects on cell proliferation. Compound 1 at 25 μM inhibited cellular proliferation by 40% (FIG. 11A).

VA-13 cells [7] = assay: Nuclear staining (Hoechst) for apoptotic morphology, VA-13; assay type: cell-based, human; conditions: 25 μM, 24 h
Method: After each drug treatment, both detached and attached VA-13 and WI-38 cells were stained Hoechst 33342 to assess for apoptosis. Briefly, cells were washed 2× in PBS, fixed for 1 h with 70% ethanol at 4° C., washed 3× in PBS, and stained with […] Hoechst for 30 min in the dark at room temperature. Detached cells were plated on a slide and attached cells were visualized on the plate with a fluorescent microscope at 10× or 40× resolution (Zeiss, Germany). Digital Scientific obtained images with AxioVision 4.1 and adjusted using Adobe Photoshop 6.0.
Next, apoptotic nuclear morphology is examined after treatment with natural (−)-EGCG, 2, and 2a (FIG. 12B). […] A comparison among all the protected analogs was then performed using 25 μM for 24 h. […] All of the protected analogs induced apoptosis in transformed (VA-13), but not normal (WI-38) cells (FIGS. 12B and 12C).

Jurkat T cells [8] = assay: Trypan blue cell death assay in Jurkat T cells; assay type: cell-based, human; conditions: 25 μM, 24 h
LNCaP cells [9] = assay: Soft agar colony formation assay; assay type: cell-based, human; conditions: 25 μM once at plating, 21 days

CC(=O)Oc1cccc(C(=O)O[C@@H]2Cc3c(OC(C)=O)cc(OC(C)=O)cc3O[C@H]2c2cc(OC(C)=O)c(OC(C)=O)c(OC(C)=O)c2)c1 (relative stereo) [Compound 2a, (2S*,3R*)-trans-5,7-Bis(acetyloxy)-2-[3,4,5-tris(acetyloxy)phenyl]chroman-3-yl 3-acetyloxybenzoate]
accumulation of p27 [1]: Accumulation of p27
apoptosis-specific PARP cleavage (Jurkat T cells [2]): induced apoptosis-specific PARP cleavage
apoptosis (PARP cleavage), Jurkat T versus YT cells (YT cells): only Jurkat cells underwent apoptosis
apoptotic morphological changes (LNCaP cells [3]): dramatic round-up, detachment, and cellular fragmentation
ubiquitin-conjugated proteins [4]: greatest increase
apoptotic cells (p85 cleaved PARP) (VA-13 cells [5]): 73%
decrease in proteasome chymotrypsin-like activity [6]: 92%
inhibition of cellular proliferation (MCF-7 cells; 5 μM): 50%
inhibition of cellular proliferation (MCF-7 cells; 25 μM): 70%
apoptotic nuclear morphology (VA-13 cells [7]): markedly induced apoptosis
cell death (trypan blue) (Jurkat T cells [8]): 99%
colony formation in soft agar (LNCaP cells [9]): most potent inhibitors of colony formation

CC(=O)Oc1ccc(C(=O)O[C@@H]2Cc3c(OC(C)=O)cc(OC(C)=O)cc3O[C@H]2c2cc(OC(C)=O)c(OC(C)=O)c(OC(C)=O)c2)cc1 (relative stereo) [Compound 3a, (2S*,3R*)-trans-5,7-Bis(acetyloxy)-2-[3,4,5-tris(acetyloxy)phenyl]chroman-3-yl 4-(acetyloxy)benzoate]
accumulation of p27 [1]: Accumulation of p27
apoptosis-specific PARP cleavage (Jurkat T cells [2]): induced apoptosis-specific PARP cleavage
apoptotic morphological changes (LNCaP cells [3]): dramatic round-up, detachment, and cellular fragmentation
ubiquitin-conjugated proteins [4]: greatest increase
inhibition of cellular proliferation (MCF-7 cells; 5 μM): 50%
inhibition of cellular proliferation (MCF-7 cells; 25 μM): 70%
cell death (trypan blue) (Jurkat T cells [8]): 57%
